Assay results taken from US12667584B2, “Adenosine analog and its use in regulating the circadian clock” (NATIONAL INSTITUTE OF BIOLOGICAL SCIENCES, BEIJING, priority 2017, dated 2026).
Read-outs that look alike come from different tables or passages of the source.

Legend:
[1] = test system: Per2:luc U2OS cells; test: Real-time monitoring of circadian oscillation in lumicycle, Per2:luc U2OS cells; type: cell-based, human; settings: for effect on the clock phase: in words
Method: Cell culture, drug treatment and Real-Time Monitoring of Circadian Oscillations: Per2-Luc reporter U2OS cells (D15) and Bmal1-Luc reporter U2OS cells (C26) cells were kept in DMEM medium (Gibco), supplemented with 10% FBS (Gibco) and 1% penicillin streptomycin mixture (Gibco). For Circadian Oscillation monitored with lumicycle (Actimetrics), cells were seeded at the density of 10^6 per 3.5 cm dish (Z688851-30EA). The medium was changed into XM medium (PH7.2, 10 mM HEPES, 350 mg/I bicarbonate, 1×B27, 100 IU/ml penicillin, 100 μg/ml streptomycin, 10 μg/ml gentamycin, and 100 μM d-Luciferin) 2 days after cell seeding. 3.5 cm dish was then sealed with high-vacuum grease (Dow Corning) and microscope cover glass, and transferred into lumicycle which was placed in an incubator (37° C.). For Drug treatment, 3.5 cm dish was taken out from lumicycle quickly at indicated time. After chemical was added into the medium, the dish was sealed again and put back into lumicycle. For Circadian Oscillation monitored with Tecan (Perkinelmer), cells were seeded at the density of […] per well for 384-well plate (CLS3610-48EA). 2 days later, the medium was changed into premixed XM medium with different chemicals with or without pentostatin (5 μg/ml). The plate was then sealing with sealing film (Sangon Biotech) and put into Tecan. Data from cells were collected in the Tecan luminometer at 37° C. for 5˜7 days.
The inventors conducted a chemical screen using the human osteosarcoma U2OS cell line so as to discover small molecules that modify the phase of the intracellular clock in mammals. In the primary screen, the inventors used two reporter lines of U2OS harboring a luciferase gene under control of either Per2 or Bmal1 promoter (named Per2-dLuc or Bmal1-dLuc cells), and set the threshold for at least 6 h phase-changes with no apparent amplitude-reduction in both cell lines. […] An institutional pilot chemical library consisting of approximately 10,000 small molecules was applied in this study. […] The inventors set to allow a free-run of the clock before administration of the compound over the course in order to eliminate the possibility that this phase-changing phenomenon was due to a combinative phenotype of medium-change plus the compound effect.
Circadian clock is a transcriptional based feedback loop, however different clock genes contain different cis-element and may show different response to the same stimulation. […] Since the close similar structure with adenosine and potential function of inhibiting transcription by preventing mRNA elongation, we tested whether adenosine and other deoxynucleoside could shift circadian phase. […] Therefore we further tested whether cordycepin utilize adenosine transporter to enter cell or utilize adenosine deaminase to degrade.
One prominent character of zeitgeiber is phase dependent function. Therefore, we further tested whether cordycepin also has the character.

[2] = test system: C57BL/6j mice; test: Wheel running jet-lag experiment, 8 h phase advance or delay; type: in vivo, mouse; settings: for With Pentostadin Cell Assay: Dose effect: 15 mg/kg
Method: Wheel running experiment: Male C57Bj/6 mice at 7 w old were purchased from the Nanjing Biomedical Research Institute of Nanjing University introduced from Jackson Laboratory, housed in individually wheel-running cage in a temperature- and humidity-controlled SPF facility, with ad libitum access to food and water. The animals were entrained under 12 h light/dark photoperiod for two weeks to synchronize the endogenous circadian clock of the mice to the ambient light-dark cycle, light intensity is about 50˜100 lux. After synchronization, light-dark cycles were 8-hr phase-advanced or phase-delayed. On the day of light-dark cycle was shifted advance, mice were firstly fasted at CT 3, then 15 mg/kg bw CA03, 15 and 30 mg/kg bw pro-CA03, 15 and 30 mg/kg bw pro-CA04 or DMSO were intraperitoneal injection at CT 12, and light on time (CT 0) was shifted from 7 am to 11 pm), finally re-feed and inject drug again at CT 23 of the old light-dark cycle. CA03 and pro-CA04 were firstly dissolved in DMSO to the concentration of 200 μg/μl, then dilute with saline to the final concentration of 1000 μg/ml for intraperitoneal injection. Pro-03 was firstly dissolved in DMSO to the concentration of 200 μg/μl, then dilute with 2% tween80 (in sterilized water) to the final concentration of 1000 μg/ml for intraperitoneal injection. On the day of light-dark cycle was shifted delayed, mice were firstly fasted at ZT 3, then 15 mg/kg bw CA03, 15 and 30 mg/kg bw pro-CA03, 15 and 30 mg/kg bw pro-CA04 or DMSO were intraperitoneal injection at CT 12, and light off time (CT12) was shifted from […] to 3 am), finally re-feed and inject drug again at CT 23 of the old light-dark cycle. Locomotor activity was recorded in 10-min bins wheel running (Actimetrics), and the data obtained were analysed with Clocklab software (Actimetrics). All animal experimental procedures were performed in accordance with the protocol approved by the Institutional Animal Care and Usage Committee (IACUC) of the National Institute of Biological Sciences, Beijing.
Under a standard jet-lag protocol {Yamaguchi, 2013}, wild-type C57BL/6j mice usually take ˜10 d to adapt to 8 h phase advance. […] Similarly, the drug treated mice adapt faster to the phase delay (FIG. 2D&2E).
To test whether cordycepin function in vivo, we firstly tested luciferase signal level by live imaging of Per2:LUC mice after intraperitoneal injection of 15 mg/kg cordycepin or DMSO. We found cordycepin induce more than 4 folds increase of luciferase signal in liver when compared with DMSO control (A). […] We also reconfirmed endogenous transcription rate of core clock genes by measuring the pre-mRNA with qPCR in the liver (B). We examined RRE genes (including Bmal1, Clock, Npas2, Cry1 and Nfil3), internal control genes (including Gapdh, Tbp and Actin) and E-box genes (including Per1, Per2, Dbp and Nr1d1). We designed at least 2 primers for each gene. […] Prior evaluation the jet-leg cure ability of cordycepin, we detected whether cordycepin and it's prodrug pro-CA03 can penetrate BBB. We injected cordycepin or pro-CA03 via tail vein and time course sampled CSF and analyzed cordycepin pro-CA03 level with HPLC-MASS method. […] Finally we evaluated the jet-leg cure ability of cordycepin, pro-CA03 and Pro-CA04 with mice behavioral experiment. Wild-type C57BL/6j mice typically take ˜10 days to adapt to an 8 h phase advance. […]

[3] = test system: Per2-Luc reporter U2OS cells (D15); test: Circadian phase shift cell assay in D15 cells, 384 well plate, Tecan, with or without pentostatin; type: cell-based, human; settings: for minimal effective concentration / With Pentostadin Cell Assay: concentration that shifts the circadian phase; for minimal effective concentration: read-out: Cell Assay; for With Pentostadin Cell Assay: pentostatin 5 μg/ml
[4] = Homo sapiens, U2OS, without pentostatin

## Nc1ncnc2c1ccn2[C@@H]1O[C@H](CO)[C@@H](O)[C@H]1O [7-deazaadenosine, tubercidin]
[1]
  effect on the clock phase: can shift circadian phase

## CCCCCCCC(=O)Nc1ncnc2c1ncn2[C@@H]1O[C@H](CO)C[C@H]1O
[2]
  With Pentostadin Cell Assay: Dose effect: Dose effect (15 mg/kg)

## CCCCCCCC(=O)Nc1ncnc2c1ncn2[C@@H]1O[C@H](CO)[C@H](O)[C@H]1O [Pro-CA04, N-octanoyl-9-(P-D-xylofuranosyl)-adenine]
[2]; DMSO 10 days
  adaption time after 8 phase advance: ~5 days

## Nc1ncnc2c1ncn2[C@@H]1O[C@H](CO)[C@H](O)[C@H]1O [(3′R)-adenosine, 3′-(R)-adenosine]
[1]
  effect on the clock phase: can shift circadian phase

## OC[C@H]1O[C@@H](n2cnc3c2NC=NC[C@H]3O)C[C@@H]1O [pentostatin]
[1]
  effect on the clock phase: does not affect the clock phase
[1]; listed as Pentostatin
  effect on the clock phase: does not affect the clock at all

## Nc1nccc2c1ncn2[C@@H]1O[C@H](CO)C(O)C1O (stereo partly drawn)
[3]; [4]
  minimal effective concentration: 50 µM
[3]
  With Pentostadin Cell Assay: 50 µM

## Nc1cc(Cl)nc2c1ncn2[C@@H]1O[C@H](CO)C(O)C1O (stereo partly drawn)
[3]; [4]
  minimal effective concentration: > 500 µM
[3]
  With Pentostadin Cell Assay: 100 µM

## Cc1cccc(Cc2nn(C(C)(C)C)c3ncnc(N)c23)c1
[3]; [4]
  minimal effective concentration: 10 µM

## OC[C@H]1O[C@@H](n2cnc3cc(Cl)c(Cl)cc32)C(O)C1O (stereo partly drawn) [drawing 284]
[3]; without pentostatin
  minimal effective concentration: 10 µM

## Nc1ncnc2c1ncn2[C@@H]1O[C@H](COC(=O)CCCC[C@@H]2SC[C@@H]3NC(=O)N[C@@H]32)C(O)C1OC(=O)CCCC[C@@H]1SC[C@@H]2NC(=O)N[C@@H]21 (stereo partly drawn)
[3]; [4]
  minimal effective concentration: > 500 µM
[3]
  With Pentostadin Cell Assay: 25 µM

## O=P(O)(O)OP(=O)(O)OP(=O)(O)OC[C@H]1O[C@@H](n2cnc3c(NCc4ccccc4)ncnc32)[C@H](O)[C@@H]1O
[3]; [4]
  minimal effective concentration: 10 µM

## Nc1ncnc2c1c(Br)cn2[C@@H]1O[C@H](CO)C[C@H]1O [NQZ-194]
[3]; under the concentration of 100 μM
  amplitude effect, Per2:luc signal versus control: more than two fold of control

## OC[C@H]1O[C@@H](n2cnc3c(Nc4cccc(O)c4)ncnc32)C(O)C1O (stereo partly drawn)
[3]; [4]
  minimal effective concentration: 200 µM

## CNC(=O)c1cnn(-c2nc(N)c3ncn([C@@H]4O[C@H](CO)C(O)C4O)c3n2)c1 (stereo partly drawn)
[3]; [4]
  minimal effective concentration: 100 µM

## Nc1ncnc2c1ncn2[C@@H]1O[C@H](COC(=O)CCCC[C@@H]2SC[C@@H]3NC(=O)N[C@@H]32)CC1OC(=O)CCCC[C@@H]1SC[C@@H]2NC(=O)N[C@@H]21 (stereo partly drawn)
[3]; [4]
  minimal effective concentration: > 500 µM
[3]
  With Pentostadin Cell Assay: 12.5 µM

## Nc1ncnc2c1ncn2[C@@H]1O[C@@H]2COC2[C@H]1O (stereo partly drawn)
[3]; [4]
  minimal effective concentration: > 500 µM
[3]
  With Pentostadin Cell Assay: 100 µM

## OC[C@H]1O[C@@H](n2cnc3c(NCc4ccccc4)ncnc32)C(O)C1O (stereo partly drawn)
[3]; [4]
  minimal effective concentration: 10 µM
[3]
  With Pentostadin Cell Assay: 10 µM

## Nc1ncnc2c1c(Br)cn2[C@H]1O[C@H](CO)C[C@H]1O
[3]; [4]
  minimal effective concentration: > 500 µM
[3]
  With Pentostadin Cell Assay: 200 µM

## Nc1ncnc2c1ncn2[C@@H]1O[C@H](CO)[C@H](O)[C@H]1O [NQZ-007, 9-(β-D-xylofuranosyl)-adenine]
[3]; pentostatin containing medium (5 μg/ml)
  concentration of eliciting 12 h phase shift (potency): 0.2 µM
[3]; without pentostatin
  concentration of eliciting 12 h phase shift (potency): 25 µM

## Nc1ncnc2c1ncn2[C@@H]1O[C@H](CO)CC1O (stereo partly drawn)
[3]; [4]
  minimal effective concentration: 25 µM
[3]
  With Pentostadin Cell Assay: 0.5 µM

## Nc1nc(Br)nc2c1ncn2[C@@H]1O[C@H](CO)C[C@H]1O
[3]; [4]
  minimal effective concentration: > 500 µM
[3]
  With Pentostadin Cell Assay: 100 µM

## CCCCCCCC(=O)Nc1ncnc2c1ncn2[C@@H]1O[C@H](CO)[C@H](O)[C@H]1O [drawing 329]
[2]
  With Pentostadin Cell Assay: Dose effect: Dose effect (15 mg/kg)

## Nc1ncnc2c1ncn2[C@@H]1O[C@H](CO)[C@@H](O)[C@H]1O [adenosine]
[1]; excessive amount
  effect on phase effect induced by cordycepin: inhibits the phase effect induced by cordycepin
[1]
  effect on the clock phase: not

## Nc1nccc2c1ncn2[C@@H]1O[C@H](CO)[C@@H](O)[C@H]1O [3-deazaadenosine, 3-Deazaadenosine]
[1]
  effect on the clock phase: can shift circadian phase
